Measurements from ChEMBL document CHEMBL5325436, “Discovery of ML210-Based glutathione peroxidase 4 (GPX4) degrader inducing ferroptosis of human cancer cells” (Eur J Med Chem, 2023).
Active and inactive are the calls of the source. The rule behind the calls is not given here.

Tests used:
[1] = molecular target: T1, Protein cereblon/Phospholipid hydroperoxide glutathione peroxidase GPX4 (Homo sapiens) (UniProt Q96SW2+P36969); test: PROTAC activity at CRBN/GPX4 in human HT-1080 cells assessed as induction of GPX4 degradation at 0.1 uM incubated for 24 hrs by Western blot analysis relative to control; type: cell-based
[2] = molecular target: T1, Protein cereblon/Phospholipid hydroperoxide glutathione peroxidase GPX4 (Homo sapiens); test: PROTAC activity at CRBN/GPX4 in human HT-1080 cells assessed as induction of GPX4 degradation at 1 uM incubated for 24 hrs by Western blot analysis relative to control; type: cell-based
[3] = test system: A-375; test: Antiproliferative activity against human A-375 cells assessed as reduction in cell viability incubated for 24 hrs by MTT assay; type: functional, cell-based; settings: A-375, 24 h
[4] = Toxicity in Balb/c nude mouse xenografted with human HT-1080 cells assessed as body weight loss at 3 mg/kg, iv administered once every two days for 10 days; type: organism-based; settings: in vivo, 240 h, time 10 day
[5] = test system: HT-1080; test: Antiproliferative activity against human HT-1080 cells assessed as reduction in cell viability incubated for 24 hrs by MTT assay; type: functional, cell-based; settings: HT-1080, 24 h
[6] = Cytotoxicity against HEK293T cells assessed as reduction in cell viability measured after 24 hrs by MTT assay; type: toxicity, cell-based, HEK-293T; settings: human
[7] = test system: HT-1080; test: Induction of ferroptosis in human HT-1080 cells assessed as increase in ROS accumulation at 0.3 uM measured at 6 to 12 hrs by fluorescence intensity based flow cytometric analysis; type: functional, cell-based; settings: time 6-12 hrs
[8] = molecular target: T2, Phospholipid hydroperoxide glutathione peroxidase GPX4 (Homo sapiens) (UniProt P36969); test: Induction of GPX4 degradation in human HT-1080 cells measured after 12 hrs relative to control; type: cell-based
T2 sequence (whole entry): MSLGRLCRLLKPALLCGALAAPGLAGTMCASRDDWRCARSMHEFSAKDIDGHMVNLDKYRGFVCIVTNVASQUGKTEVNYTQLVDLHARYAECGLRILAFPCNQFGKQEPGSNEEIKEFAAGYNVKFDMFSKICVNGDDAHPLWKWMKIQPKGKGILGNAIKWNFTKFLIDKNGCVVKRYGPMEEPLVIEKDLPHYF

[9] = molecular target: T2, Phospholipid hydroperoxide glutathione peroxidase GPX4 (Homo sapiens); test: Induction of GPX4 degradation in human HT-1080 cells assessed as reduction in GPX4 protein level measured after 6 hrs; type: cell-based
[10] = test system: Calu-1; test: Antiproliferative activity against human Calu-1 cells assessed as reduction in cell viability incubated for 24 hrs by MTT assay; type: functional, cell-based; settings: Calu-1, 24 h
[11] = molecular target: T3, Phospholipid hydroperoxide glutathione peroxidase GPX4 (Homo sapiens, UniProt P36969); test: Induction of GPX4 degradation in human HT-1080 cells measured after 24 hrs; type: cell-based
T3 sequence (P36969 whole entry): T2 sequence (whole entry)

[12] = molecular target: Protein cereblon/Phospholipid hydroperoxide glutathione peroxidase GPX4 (Homo sapiens, UniProt P36969+Q96SW2); test: (§1) PROTAC activity at CRBN/GPX4 in human HT-1080 cells assessed as induction of GPX4 degradation incubated for 24 hrs by Western blot analysis; type: cell-based
[13] = molecular target: T1, Protein cereblon/Phospholipid hydroperoxide glutathione peroxidase GPX4 (Homo sapiens); test: as §1; type: cell-based
[14] = molecular target: T1, Protein cereblon/Phospholipid hydroperoxide glutathione peroxidase GPX4 (Homo sapiens); test: PROTAC activity at CRBN/GPX4 in human HT-1080 cells assessed as induction of GPX4 degradation at 1 uM by Western blot analysis; type: cell-based; settings: time <= 24.0 hrs, TDE = time-dependent effect
[15] = molecular target: T1, Protein cereblon/Phospholipid hydroperoxide glutathione peroxidase GPX4 (Homo sapiens); test: PROTAC activity at CRBN/GPX4 in human HT-1080 cells assessed as induction of GPX4 degradation in the presence of ML210 by ligand competition assay; type: cell-based
[16] = molecular target: T1, Protein cereblon/Phospholipid hydroperoxide glutathione peroxidase GPX4 (Homo sapiens); test: Potency index, ratio of […] EC50 to test compound EC50 for PROTAC activity at CRBN/GPX4 in human HT-1080 cells; type: cell-based
[17] = molecular target: T1, Protein cereblon/Phospholipid hydroperoxide glutathione peroxidase GPX4 (Homo sapiens); test: PROTAC activity at CRBN/GPX4 in human HT-1080 cells assessed as induction of GPX4 degradation in the presence of lenalidomide by ligand competition assay; type: cell-based
[18] = molecular target: T1, Protein cereblon/Phospholipid hydroperoxide glutathione peroxidase GPX4 (Homo sapiens); test: PROTAC activity at CRBN/GPX4 in human HT-1080 cells assessed as induction of GPX4 degradation at 0.1 uM incubated for 12 hrs by Western blot analysis relative to control; type: cell-based
[19] = Potency index, ratio of test compound IC50 to ML210 IC50 for cytotoxicity against HEK293T cells; type: toxicity, cell-based, HEK-293T; settings: human, read-out: Ratio IC50
[20] = test system: HT-1080; test: Antiproliferative activity against human HT-1080 cells assessed as reduction in cell viability at 10 uM incubated for 24 hrs in the presence of liproxstin-1 by MTT assay; type: functional, cell-based
[21] = molecular target: T1, Protein cereblon/Phospholipid hydroperoxide glutathione peroxidase GPX4 (Homo sapiens); test: PROTAC activity at CRBN/GPX4 in human HT-1080 cells assessed as induction of GPX4 degradation at 0.1 uM preincubated with MG132 and Baf-A1 for 2 hrs followed by compound addition and measured after 12 hrs by Western blot analysis; type: cell-based
[22] = test system: Mus musculus; test: In vivo PROTAC activity at CRBN/GPX4 in human HT-1080 cells xenografted in Balb/c nude mouse assessed as reduction in GPX4 level in tumor at 20 mg/kg,iv administered as single dose by immunoblotting analysis; type: functional, organism-based; settings: time 6-48 hrs, TDE = time-dependent effect
[23] = Toxicity in Balb/c nude mouse xenografted with human HT-1080 cells assessed as body weight loss at 5 to 40 mg/kg, iv administered once every two days for 10 days; type: organism-based; settings: in vivo, 240 h, dose 5-40 mg/kg, time 10 day
[24] = test system: HT-1080; test: Induction of ferroptosis in human HT-1080 cells assessed as increase in ROS accumulation at 0.3 uM measured upto 12 hrs by fluorescence intensity based flow cytometric analysis; type: functional, cell-based
[25] = molecular target: T1, Protein cereblon/Phospholipid hydroperoxide glutathione peroxidase GPX4 (Homo sapiens); test: PROTAC activity at CRBN/GPX4 in human HT-1080 cells assessed as induction of GPX4 degradation at 0.3 uM incubated for 24 hrs by Western blot analysis relative to control; type: cell-based
[26] = test system: HT-1080; test: Induction of ferroptosis in human HT-1080 cells assessed as cell death at 0.3 uM preincubated with liproxstin-1 for 2 hrs followed by compound addition and measured after 12 hrs by fluorescence intensity based flow cytometric analysis; type: functional

Cc1onc(C(=O)N2CCN(C(c3ccc(Cl)cc3)c3ccc(OCC(=O)N4CCC(CN5CCN(CCCCNc6cccc7c6C(=O)N(C6CCC(=O)NC6=O)C7=O)CC5)CC4)cc3)CC2)c1[N+](=O)[O-] (centres undefined)
Activity [1]: 42% | Activity [2]: 70%

Cc1onc(C(=O)N2CCN(C(c3ccc(Cl)cc3)c3ccc(OCC(=O)N4CCN(CCCCCCCNc5cccc6c5CN(C5CCC(=O)NC5=O)C6=O)CC4)cc3)CC2)c1[N+](=O)[O-] (centres undefined)
Activity [2]: 13%

Cc1onc(C(=O)N2CCN(C(c3ccc(Cl)cc3)c3ccc(OCC(=O)N4CCC(CN5CCN(CCCCCNc6cccc7c6C(=O)N(C6CCC(=O)NC6=O)C7=O)CC5)CC4)cc3)CC2)c1[N+](=O)[O-] (centres undefined)
Activity [1]: 33% | Activity [2]: > 80%

Cc1onc(C(=O)N2CCN(C(c3ccc(Cl)cc3)c3ccc(Cl)cc3)CC2)c1[N+](=O)[O-]
IC50 [3]: 300 nM | Activity [4]: Toxic | IC50 [5]: 100 nM | IC50 at 24 h [6]: 200 nM | Activity [7]: inactive | Activity [8]: > 60% | Activity [9]: Active | IC50 [10]: 900 nM | EC50 [11]: 650 nM

Cc1onc(C(=O)N2CCN(C(c3ccc(Cl)cc3)c3ccc(OCC(=O)N4CCN(CCCCCCCCCCCCCCNc5cccc6c5CN(C5CCC(=O)NC5=O)C6=O)CC4)cc3)CC2)c1[N+](=O)[O-] (centres undefined)
Activity [2]: < 5%

Cc1onc(C(=O)N2CCN(C(c3ccc(Cl)cc3)c3ccc(OCC(=O)N4CCC(CN5CCN(CCNc6cccc7c6C(=O)N(C6CCC(=O)NC6=O)C7=O)CC5)CC4)cc3)CC2)c1[N+](=O)[O-] (centres undefined)
Activity [1]: 36% | Activity [2]: > 80%

Cc1onc(C(=O)N2CCN(C(c3ccc(Cl)cc3)c3ccc(OCC(=O)N4CCN(CCCCCCCCNc5cccc6c5CN(C5CCC(=O)NC5=O)C6=O)CC4)cc3)CC2)c1[N+](=O)[O-] (centres undefined)
Activity [2]: 36%

Cc1onc(C(=O)N2CCN(C(c3ccc(Cl)cc3)c3ccc(OCC(=O)N4CCN(CCCCCCCCCNc5cccc6c5CN(C5CCC(=O)NC5=O)C6=O)CC4)cc3)CC2)c1[N+](=O)[O-] (centres undefined)
IC50 [5]: 300 nM | Activity [2]: 40% | EC50 [12]: 400 nM | Activity [13]: Dose-Dependent Effect | Activity [14]: Tde

Cc1onc(C(=O)N2CCN(C(c3ccc(Cl)cc3)c3ccc(OCC(=O)N4CCC(CN5CCN(CCCNc6cccc7c6C(=O)N(C6CCC(=O)NC6=O)C7=O)CC5)CC4)cc3)CC2)c1[N+](=O)[O-] (centres undefined)
Activity [15]: Active | Ratio EC50 [16]: 22 | Activity [17]: Active | Activity [1]: 82% | IC50 [3]: 200 nM | Activity [18]: > 80% | IC50 [5]: 100 nM | selectivity ratio [19]: 5 | IC50 at 24 h [6]: 1100 nM | Activity [20]: inactive | Activity [21]: inactive | Activity [22]: Tde | Activity [23]: Non-Toxic | Activity [24]: Active | Activity [2]: > 78% | EC50 [12]: 30 nM | Activity [13]: Dose-Dependent Effect | Activity [14]: Tde | Activity [25]: 100% | Activity [26]: inactive | IC50 [10]: 300 nM

Cc1onc(C(=O)N2CCN(C(c3ccc(Cl)cc3)c3ccc(OCC(=O)N4CCC(CN5CCN(CCCCCCNc6cccc7c6C(=O)N(C6CCC(=O)NC6=O)C7=O)CC5)CC4)cc3)CC2)c1[N+](=O)[O-] (centres undefined)
Activity [1]: 50% | Activity [2]: > 80%

Cc1onc(C(=O)N2CCN(C(c3ccc(Cl)cc3)c3ccc(OCC(=O)N4CCC(CN5CCC(CN6CCC(Nc7cccc8c7C(=O)N(C7CCC(=O)NC7=O)C8=O)CC6)CC5)CC4)cc3)CC2)c1[N+](=O)[O-] (centres undefined)
IC50 [5]: 1200 nM | Activity [2]: 25%

Cc1onc(C(=O)N2CCN(C(c3ccc(Cl)cc3)c3ccc(OCC(=O)N4CCN(CCCCCCCCCCCNc5cccc6c5CN(C5CCC(=O)NC5=O)C6=O)CC4)cc3)CC2)c1[N+](=O)[O-] (centres undefined)
Activity [2]: 54%

Cc1onc(C(=O)N2CCN(C(c3ccc(Cl)cc3)c3ccc(OCC(=O)N4CCC(CN5CCC(CN6CCN(c7cccc8c7C(=O)N(C7CCC(=O)NC7=O)C8=O)CC6)CC5)CC4)cc3)CC2)c1[N+](=O)[O-] (centres undefined)
IC50 [5]: 1000 nM | Activity [2]: 30%

Cc1onc(C(=O)N2CCN(C(c3ccc(Cl)cc3)c3ccc(OCC(=O)N4CCN(CCCCCCCCCCNc5cccc6c5CN(C5CCC(=O)NC5=O)C6=O)CC4)cc3)CC2)c1[N+](=O)[O-] (centres undefined)
Activity [2]: 43%

Cc1onc(C(=O)N2CCN(C(c3ccc(Cl)cc3)c3ccc(OCC(=O)N4CCN(CCCCCCCCCCCCNc5cccc6c5CN(C5CCC(=O)NC5=O)C6=O)CC4)cc3)CC2)c1[N+](=O)[O-] (centres undefined)
Activity [2]: 32%

Cc1onc(C(=O)N2CCN(C(c3ccc(Cl)cc3)c3ccc(OCC(=O)N4CCN(CCCCCCCCCCCCCNc5cccc6c5CN(C5CCC(=O)NC5=O)C6=O)CC4)cc3)CC2)c1[N+](=O)[O-] (centres undefined)
Activity [2]: 36%
